Measured values: US10344060B2 (priority 2013, dated 2019)
pIC50: −log10 of the molar value. Several values for one entry are separate records, joined by “and”; a condition that tells them apart may be missing. Equal entries are not always repeated. Where two headings read alike, the source gives them in different places.

How the values were obtained:
Experiment in all cases: cell-based
hNav1.7 [1] = target: T1, hNav1.7 (Homo sapiens, UniProt Q15858); type: cell-based; settings: for pIC50: PatchXpress, read-out: PX hNav1.7 Tonic IC50; for Nav1.4/Nav1.7 / Nav1.5/Nav1.7: ratio of PX tonic IC50 values
hNav1.6 = hNav1.6 (Homo sapiens, UniProt Q9UQD0); type: cell-based; settings: for Nav1.6/Nav1.7 / pIC50: Table 15; for Nav1.6/Nav1.7: ratio of PX tonic IC50 values; for pIC50: read-out: PX hNav1.6 Tonic IC50
hNav1.7 [2] = target: T1, hNav1.7; settings: ratio of IonWorks Quattro IC50 values

T1 sequence (Q15858 whole entry): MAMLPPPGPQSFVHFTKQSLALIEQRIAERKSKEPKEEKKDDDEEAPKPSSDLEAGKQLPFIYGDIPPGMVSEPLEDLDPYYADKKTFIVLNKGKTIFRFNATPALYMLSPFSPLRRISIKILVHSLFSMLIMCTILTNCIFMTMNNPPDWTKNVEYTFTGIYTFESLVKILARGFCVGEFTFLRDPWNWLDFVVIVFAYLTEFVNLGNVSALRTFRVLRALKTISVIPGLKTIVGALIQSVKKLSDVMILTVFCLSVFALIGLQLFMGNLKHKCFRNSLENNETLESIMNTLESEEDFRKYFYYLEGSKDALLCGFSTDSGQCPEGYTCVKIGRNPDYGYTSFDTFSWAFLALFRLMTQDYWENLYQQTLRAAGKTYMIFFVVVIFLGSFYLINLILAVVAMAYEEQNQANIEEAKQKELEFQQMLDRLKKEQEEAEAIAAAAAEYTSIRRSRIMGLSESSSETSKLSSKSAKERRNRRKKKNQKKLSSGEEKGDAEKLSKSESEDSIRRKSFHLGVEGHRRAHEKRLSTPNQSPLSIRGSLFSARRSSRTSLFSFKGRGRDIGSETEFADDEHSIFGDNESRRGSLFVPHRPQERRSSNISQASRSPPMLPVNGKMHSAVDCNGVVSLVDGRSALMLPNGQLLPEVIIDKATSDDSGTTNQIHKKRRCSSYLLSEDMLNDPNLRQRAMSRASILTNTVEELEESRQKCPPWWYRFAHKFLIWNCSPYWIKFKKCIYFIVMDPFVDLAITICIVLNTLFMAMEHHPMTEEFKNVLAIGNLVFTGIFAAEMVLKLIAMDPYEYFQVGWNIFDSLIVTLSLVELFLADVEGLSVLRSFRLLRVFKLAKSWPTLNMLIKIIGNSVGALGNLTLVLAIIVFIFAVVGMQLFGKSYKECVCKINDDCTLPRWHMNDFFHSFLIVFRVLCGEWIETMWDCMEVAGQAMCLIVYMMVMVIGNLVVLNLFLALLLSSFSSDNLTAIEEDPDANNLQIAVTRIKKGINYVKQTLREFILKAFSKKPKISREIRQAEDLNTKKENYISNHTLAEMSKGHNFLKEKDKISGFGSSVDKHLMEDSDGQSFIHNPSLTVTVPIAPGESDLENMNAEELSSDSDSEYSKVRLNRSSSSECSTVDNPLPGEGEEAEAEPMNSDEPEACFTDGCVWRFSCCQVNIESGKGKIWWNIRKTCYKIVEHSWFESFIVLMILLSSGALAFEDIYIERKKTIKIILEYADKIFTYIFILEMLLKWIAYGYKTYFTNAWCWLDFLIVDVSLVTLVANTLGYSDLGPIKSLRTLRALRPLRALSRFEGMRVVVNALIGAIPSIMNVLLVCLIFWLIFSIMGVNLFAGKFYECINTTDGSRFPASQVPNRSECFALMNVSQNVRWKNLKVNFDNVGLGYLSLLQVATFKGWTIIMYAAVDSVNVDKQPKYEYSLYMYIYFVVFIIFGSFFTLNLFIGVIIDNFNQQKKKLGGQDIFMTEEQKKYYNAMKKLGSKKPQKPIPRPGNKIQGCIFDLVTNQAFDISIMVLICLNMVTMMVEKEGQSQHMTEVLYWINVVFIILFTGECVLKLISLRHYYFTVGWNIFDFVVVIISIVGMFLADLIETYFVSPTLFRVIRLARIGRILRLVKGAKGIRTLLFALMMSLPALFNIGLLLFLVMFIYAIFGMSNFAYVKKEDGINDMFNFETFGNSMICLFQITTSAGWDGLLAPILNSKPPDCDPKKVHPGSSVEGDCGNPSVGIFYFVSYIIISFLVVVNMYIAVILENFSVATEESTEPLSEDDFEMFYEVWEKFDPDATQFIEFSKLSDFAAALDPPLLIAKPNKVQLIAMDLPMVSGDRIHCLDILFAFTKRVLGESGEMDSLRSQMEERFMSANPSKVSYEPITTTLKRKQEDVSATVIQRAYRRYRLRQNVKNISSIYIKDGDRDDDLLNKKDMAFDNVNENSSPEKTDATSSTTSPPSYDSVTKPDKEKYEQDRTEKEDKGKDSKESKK
hNav1.6, sequence (Q9UQD0 whole entry): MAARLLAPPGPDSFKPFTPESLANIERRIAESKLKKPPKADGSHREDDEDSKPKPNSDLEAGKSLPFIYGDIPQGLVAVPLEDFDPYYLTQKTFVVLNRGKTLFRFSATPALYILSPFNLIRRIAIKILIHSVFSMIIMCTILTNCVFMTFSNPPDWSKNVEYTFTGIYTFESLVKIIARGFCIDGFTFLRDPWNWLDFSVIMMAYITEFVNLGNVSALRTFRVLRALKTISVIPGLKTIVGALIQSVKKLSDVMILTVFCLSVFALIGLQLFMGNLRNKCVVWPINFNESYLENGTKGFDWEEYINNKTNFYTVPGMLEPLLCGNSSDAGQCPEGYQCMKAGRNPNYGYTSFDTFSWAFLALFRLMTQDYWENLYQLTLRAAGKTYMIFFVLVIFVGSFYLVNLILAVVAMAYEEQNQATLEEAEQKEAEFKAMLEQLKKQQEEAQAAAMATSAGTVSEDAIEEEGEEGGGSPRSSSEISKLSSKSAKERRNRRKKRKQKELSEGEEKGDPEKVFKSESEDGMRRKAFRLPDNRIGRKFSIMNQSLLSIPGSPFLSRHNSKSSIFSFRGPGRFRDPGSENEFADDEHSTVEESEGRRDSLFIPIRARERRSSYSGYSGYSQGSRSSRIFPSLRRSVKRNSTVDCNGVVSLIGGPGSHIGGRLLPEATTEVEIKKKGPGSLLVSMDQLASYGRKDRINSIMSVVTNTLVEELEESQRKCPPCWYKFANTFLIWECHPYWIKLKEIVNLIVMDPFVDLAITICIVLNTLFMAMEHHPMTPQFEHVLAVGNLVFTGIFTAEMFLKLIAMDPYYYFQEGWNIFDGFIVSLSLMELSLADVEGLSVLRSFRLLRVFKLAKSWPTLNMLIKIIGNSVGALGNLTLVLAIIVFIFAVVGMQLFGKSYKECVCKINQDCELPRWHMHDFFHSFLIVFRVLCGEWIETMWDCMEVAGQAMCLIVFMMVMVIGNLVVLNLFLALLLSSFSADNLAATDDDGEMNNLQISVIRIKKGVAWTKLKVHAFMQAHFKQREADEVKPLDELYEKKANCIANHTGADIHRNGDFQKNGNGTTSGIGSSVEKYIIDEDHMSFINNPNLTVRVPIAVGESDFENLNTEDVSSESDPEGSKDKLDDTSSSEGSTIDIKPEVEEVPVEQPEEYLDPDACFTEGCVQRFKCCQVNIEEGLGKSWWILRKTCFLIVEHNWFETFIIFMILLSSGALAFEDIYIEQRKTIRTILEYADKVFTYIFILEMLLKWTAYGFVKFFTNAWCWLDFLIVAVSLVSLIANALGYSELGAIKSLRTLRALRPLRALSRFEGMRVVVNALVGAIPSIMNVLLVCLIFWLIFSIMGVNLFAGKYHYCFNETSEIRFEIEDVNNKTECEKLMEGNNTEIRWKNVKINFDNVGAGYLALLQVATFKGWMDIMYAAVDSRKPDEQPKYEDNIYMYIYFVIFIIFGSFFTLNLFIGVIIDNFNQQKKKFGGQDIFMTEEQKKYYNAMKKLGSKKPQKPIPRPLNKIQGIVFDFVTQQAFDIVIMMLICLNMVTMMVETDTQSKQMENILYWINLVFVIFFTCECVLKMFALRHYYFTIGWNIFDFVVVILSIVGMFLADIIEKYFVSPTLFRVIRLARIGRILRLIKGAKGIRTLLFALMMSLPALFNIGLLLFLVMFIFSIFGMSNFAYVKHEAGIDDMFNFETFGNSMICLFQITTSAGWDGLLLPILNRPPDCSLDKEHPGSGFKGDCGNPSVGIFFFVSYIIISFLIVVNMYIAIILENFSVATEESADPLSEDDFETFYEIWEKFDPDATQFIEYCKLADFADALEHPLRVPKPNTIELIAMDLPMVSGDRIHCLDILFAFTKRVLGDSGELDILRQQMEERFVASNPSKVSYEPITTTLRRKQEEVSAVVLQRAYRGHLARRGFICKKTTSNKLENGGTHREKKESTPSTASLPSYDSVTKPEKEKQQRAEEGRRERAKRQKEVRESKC

Structure (SMILES) | Nav1.4/Nav1.7 (hNav1.7 [2]; Nav1.4 over Nav1.7) | Nav1.4/Nav1.7 (hNav1.7 [1]; Table 11) | Nav1.5/Nav1.7 (hNav1.7 [1]; Table 11) | other results
CC[C@H](C)[C@H](NC(=O)[C@@H](NC(=O)[C@H](CCCCN)NC(=O)[C@H](CCCNC(=N)N)NC(=O)[C@@H]1CSSC[C@@H]2NC(=O)[C@H](C)NC(=O)[C@H](CCCNC(=N)N)NC(=O)[C@H](CCCCN)NC(=O)[C@H](CO)NC(=O)[C@H](CC(=O)O)NC(=O)[C@@H]3CSSC[C@H](NC(=O)[C@H](CCCNC(=N)N)NC(=O)[C@H](CC(C)C)NC(=O)CNC(=O)[C@H](CCC(=O)O)NC(=O)[C@H](CSSC[C@H](NC(=O)[C@@H](N)Cc4ccc(O)cc4)C(=O)N[C@@H](CCC(N)=O)C(=O)N[C@@H](CCC(=O)O)C(=O)N[C@@H](Cc4c[nH]c5ccccc45)C(=O)N[C@@H](CCSC)C(=O)N[C@@H](Cc4c[nH]c5ccccc45)C(=O)N[C@@H]([C@@H](C)O)C(=O)N3)NC2=O)C(=O)N[C@@H](CCCCN)C(=O)N[C@@H](CC(C)C)C(=O)N[C@@H](Cc2c[nH]c3ccccc23)C(=O)N1)[C@@H](C)CC)C(N)=O [compound 51] |  |  |  | pIC50 (hNav1.7 [1]; tonic, Table 11): 6.07; Nav1.6/Nav1.7 (hNav1.6): >12; pIC50 (hNav1.6): < 5.00
C#CC[C@H](N)C(=O)N[C@@H](Cc1ccc(O)cc1)C(=O)N[C@H]1CSSC[C@@H]2NC(=O)[C@@H]3CSSC[C@@H](C(=O)N[C@@H](CCCNC(=N)N)C(=O)N[C@@H](CCCCN)C(=O)N[C@@H](CCC(=O)O)C(=O)N[C@H](C(N)=O)[C@@H](C)CC)NC(=O)[C@H](Cc4c[nH]c5ccccc45)NC(=O)[C@H](CC(C)C)NC(=O)[C@H](CCCCN)NC(=O)[C@H](CSSC[C@H](NC(=O)[C@H]([C@@H](C)O)NC(=O)[C@H](Cc4c[nH]c5ccccc45)NC(=O)[C@H](CCCC)NC(=O)[C@H](Cc4c[nH]c5ccccc45)NC(=O)[C@H](CCCCN)NC(=O)[C@H](CCC(N)=O)NC1=O)C(=O)N[C@@H](CC(=O)O)C(=O)N[C@@H](CO)C(=O)N[C@@H](CCCCN)C(=O)N[C@@H](CCCNC(=N)N)C(=O)N[C@@H](C)C(=O)N3)NC(=O)[C@H](C)NC(=O)[C@H](CC(C)C)NC(=O)CNC(=O)[C@H](CCC(=O)O)NC2=O [compound 727] |  |  |  | pIC50 (hNav1.7 [1]; Table 12, tonic block): 6.04; Nav1.6/Nav1.7 (hNav1.6): >11; pIC50 (hNav1.6): < 5.00
CC[C@H](C)[C@H](NC(=O)[C@H](CCCNC(N)=O)NC(=O)[C@H](CCCCN)NC(=O)[C@H](CCCNC(=N)N)NC(=O)[C@@H]1CSSC[C@@H]2NC(=O)[C@H](C)NC(=O)[C@H](CCCNC(=N)N)NC(=O)[C@H](CCCCN)NC(=O)[C@H](CO)NC(=O)[C@H](CC(=O)O)NC(=O)[C@@H]3CSSC[C@H](NC(=O)[C@H](CCC(=O)O)NC(=O)[C@H](CC(C)C)NC(=O)CNC(=O)[C@H](CCC(=O)O)NC(=O)[C@H](CSSC[C@H](NC(=O)[C@@H](N)Cc4ccc(O)cc4)C(=O)N[C@@H](CCC(N)=O)C(=O)N[C@@H](CCCCN)C(=O)N[C@@H](Cc4c[nH]c5ccccc45)C(=O)N[C@@H](CCSC)C(=O)N[C@@H](Cc4c[nH]c5ccccc45)C(=O)N[C@@H]([C@@H](C)O)C(=O)N3)NC2=O)C(=O)N[C@@H](CCCCN)C(=O)N[C@@H](CC(C)C)C(=O)N[C@@H](Cc2c[nH]c3ccccc23)C(=O)N1)C(N)=O [compound 135] | 46 | 1075 | >1786 | 
CC[C@H](C)[C@H](NC(=O)[C@H](CCC(=O)O)NC(=O)[C@H](CCCCN)NC(=O)[C@H](CCCNC(=N)N)NC(=O)[C@@H]1CSSC[C@@H]2NC(=O)[C@H](C)NC(=O)[C@H](CCCNC(=N)N)NC(=O)[C@H](CCCCN)NC(=O)[C@H](CO)NC(=O)[C@H](CC(=O)O)NC(=O)[C@@H]3CSSC[C@H](NC(=O)[C@H](CCCNC(=N)N)NC(=O)[C@H](CC(C)C)NC(=O)CNC(=O)[C@H](CCC(=O)O)NC(=O)[C@H](CSSC[C@H](NC(=O)[C@@H](N)Cc4ccc(O)cc4)C(=O)N[C@@H](CCC(N)=O)C(=O)N[C@@H](CCCCN)C(=O)N[C@@H](Cc4c[nH]c5ccccc45)C(=O)N[C@@H](CCSC)C(=O)N[C@@H](Cc4c[nH]c5ccccc45)C(=O)N[C@@H]([C@@H](C)O)C(=O)N3)NC2=O)C(=O)N[C@@H](CCCCN)C(=O)N[C@@H](CC(C)C)C(=O)N[C@@H](Cc2c[nH]c3ccccc23)C(=O)N1)C(N)=O [SEQ ID NO: 69, [Glu28]JzTx-V(1-29)] |  |  |  | selectivity for Nav1.7 over Nav1.6 (hNav1.6; PatchXpress): 437 fold
CC[C@H](C)[C@H](NC(=O)[C@@H](NC(=O)[C@H](CCCCN)NC(=O)[C@H](CCCNC(=N)N)NC(=O)[C@@H]1CSSC[C@@H]2NC(=O)[C@H](C)NC(=O)[C@H](CCCNC(=N)N)NC(=O)[C@H](CCCCN)NC(=O)[C@H](CO)NC(=O)[C@H](CC(=O)O)NC(=O)[C@@H]3CSSC[C@H](NC(=O)[C@H](Cc4ccc(O)cc4)NC(=O)[C@H](CC(C)C)NC(=O)CNC(=O)[C@H](CCC(=O)O)NC(=O)[C@H](CSSC[C@H](NC(=O)[C@@H](N)Cc4ccc(O)cc4)C(=O)N[C@@H](CCC(N)=O)C(=O)N[C@@H](CCCCN)C(=O)N[C@@H](Cc4c[nH]c5ccccc45)C(=O)N[C@@H](CCSC)C(=O)N[C@@H](Cc4c[nH]c5ccccc45)C(=O)N[C@@H]([C@@H](C)O)C(=O)N3)NC2=O)C(=O)N[C@@H](CCCCN)C(=O)N[C@@H](CC(C)C)C(=O)N[C@@H](Cc2c[nH]c3ccccc23)C(=O)N1)[C@@H](C)CC)C(N)=O [compound 124] | 43 | 266 | >1695 | 
CC[C@H](C)[C@H](NC(=O)[C@@H](NC(=O)[C@H](CCCCN)NC(=O)[C@H](CCCNC(=N)N)NC(=O)[C@@H]1CSSC[C@@H]2NC(=O)[C@H](C)NC(=O)[C@H](CCCNC(=N)N)NC(=O)[C@H](CCCCN)NC(=O)[C@H](CO)NC(=O)[C@H](CC(=O)O)NC(=O)[C@@H]3CSSC[C@H](NC(=O)[C@H](CC(=O)O)NC(=O)[C@H](CC(C)C)NC(=O)CNC(=O)[C@H](CCC(=O)O)NC(=O)[C@H](CSSC[C@H](NC(=O)[C@@H](N)Cc4ccc(O)cc4)C(=O)N[C@@H](CCC(N)=O)C(=O)N[C@@H](CCCCN)C(=O)N[C@@H](Cc4c[nH]c5ccccc45)C(=O)N[C@@H](CCSC)C(=O)N[C@@H](Cc4c[nH]c5ccccc45)C(=O)N[C@@H]([C@@H](C)O)C(=O)N3)NC2=O)C(=O)N[C@@H](CCCCN)C(=O)N[C@@H](CC(C)C)C(=O)N[C@@H](Cc2c[nH]c3ccccc23)C(=O)N1)[C@@H](C)CC)C(N)=O [compound 115] | 53 | 10 | 4 | 
CC[C@H](C)[C@H](NC(=O)[C@H](Cc1ccc(O)cc1)NC(=O)[C@H](CCCCN)NC(=O)[C@H](CCCNC(=N)N)NC(=O)[C@@H]1CSSC[C@@H]2NC(=O)[C@H](C)NC(=O)[C@H](CCCNC(=N)N)NC(=O)[C@H](CCCCN)NC(=O)[C@H](CO)NC(=O)[C@H](CC(=O)O)NC(=O)[C@@H]3CSSC[C@H](NC(=O)[C@H](CCC(=O)O)NC(=O)[C@H](CC(C)C)NC(=O)CNC(=O)[C@H](CCC(=O)O)NC(=O)[C@H](CSSC[C@H](NC(=O)[C@@H](N)Cc4ccc(O)cc4)C(=O)N[C@@H](CCC(N)=O)C(=O)N[C@@H](CCCCN)C(=O)N[C@@H](Cc4ccc(I)cc4)C(=O)N[C@@H](CCSC)C(=O)N[C@@H](Cc4c[nH]c5ccccc45)C(=O)N[C@@H]([C@@H](C)O)C(=O)N3)NC2=O)C(=O)N[C@@H](CCCCN)C(=O)N[C@@H](CC(C)C)C(=O)N[C@@H](Cc2c[nH]c3ccccc23)C(=O)N1)C(N)=O [compound 192] |  | 78 | >455 | Nav1.4/Nav1.7 (hNav1.7 [2]; Table 8): 30
CCC[C@H](NC(=O)[C@H](CCCCN)NC(=O)[C@H](CCCNC(=N)N)NC(=O)[C@@H]1CSSC[C@@H]2NC(=O)[C@H](C)NC(=O)[C@H](CCCNC(=N)N)NC(=O)[C@H](CCCCN)NC(=O)[C@H](CO)NC(=O)[C@H](CC(=O)O)NC(=O)[C@@H]3CSSC[C@H](NC(=O)[C@H](CCC(=O)O)NC(=O)[C@H](CC(C)C)NC(=O)CNC(=O)[C@H](CCC(=O)O)NC(=O)[C@H](CSSC[C@H](NC(=O)[C@@H](N)Cc4ccc(O)cc4)C(=O)N[C@@H](CCC(N)=O)C(=O)N[C@@H](CCCCN)C(=O)N[C@@H](Cc4c[nH]c5ccccc45)C(=O)N[C@@H](CCSC)C(=O)N[C@@H](Cc4c[nH]c5ccccc45)C(=O)N[C@@H]([C@@H](C)O)C(=O)N3)NC2=O)C(=O)N[C@@H](CCCCN)C(=O)N[C@@H](CC(C)C)C(=O)N[C@@H](Cc2c[nH]c3ccccc23)C(=O)N1)C(=O)N[C@H](C(N)=O)[C@@H](C)CC [compound 136] | 66 and 34 | 405 | 611 | 
CC[C@H](C)[C@H](NC(=O)[C@H](Cc1ccc(O)cc1)NC(=O)[C@H](CCCCN)NC(=O)[C@H](CCCNC(=N)N)NC(=O)[C@@H]1CSSC[C@@H]2NC(=O)[C@H](C)NC(=O)[C@H](CCCNC(=N)N)NC(=O)[C@H](CCCCN)NC(=O)[C@H](CO)NC(=O)[C@H](CC(=O)O)NC(=O)[C@@H]3CSSC[C@H](NC(=O)[C@H](CCC(=O)O)NC(=O)[C@H](CC(C)C)NC(=O)CNC(=O)[C@H](CCC(=O)O)NC(=O)[C@H](CSSC[C@H](NC(=O)[C@@H](N)Cc4ccc(O)cc4)C(=O)N[C@@H](CCC(N)=O)C(=O)N[C@@H](CCCCN)C(=O)N[C@@H](Cc4c[nH]c5ccccc45)C(=O)N[C@@H](CCSC)C(=O)N[C@@H](Cc4c[nH]c5ccccc45)C(=O)N[C@@H]([C@@H](C)O)C(=O)N3)NC2=O)C(=O)N[C@@H](CCCCN)C(=O)N[C@@H](CC(C)C)C(=O)N[C@@H](Cc2c[nH]c3ccccc23)C(=O)N1)C(N)=O [compound 137] | 41 | 1411 | 12667 | 
